Several values for one entry are separate records, joined by “and”; a condition that tells them apart may be missing. Equal values may be shown once. Toxic doses and inconclusive results are not listed. The calls were made as follows: active = survival T/C of 150% or more; inactive = T/C below 125% in these data.
System: P388 leukemia ip, CD2F1 mice, survival T/C
Assay: NCI In Vivo Anticancer Drug Screen. Data for tumor model P388 Leukemia (intraperitoneal) in CD2F1 (CDF1) mice
Details: endpoint: median survival time, higher = longer survival
Procedure, shortened: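 Mice carrying the transplanted tumor received test compound or vehicle. Survival was recorded in each group, and the value is the treated-group measurement divided by that of the vehicle-treated control group.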

[1] = dose: 12.5 mg/kg/injection, schedule: Q01DX005 (ip), vehicle: Klucel (hydroxypropylcellulose) (HPC)
[2] = dose: 25.0 mg/kg/injection, schedule: Q01DX005 (ip), vehicle: Klucel (hydroxypropylcellulose) (HPC)
[3] = dose: 50.0 mg/kg/injection, schedule: Q01DX005 (ip), vehicle: Klucel (hydroxypropylcellulose) (HPC)
[4] = dose: 200.0 mg/kg/injection, schedule: Q01DX005 (ip), vehicle: Klucel (hydroxypropylcellulose) (HPC)
[5] = dose: 50.0 mg/kg/injection, schedule: Q01DX009 (ip), vehicle: saline
[6] = dose: 100.0 mg/kg/injection, schedule: Q01DX009 (ip), vehicle: saline
[7] = dose: 200.0 mg/kg/injection, schedule: Q01DX009 (ip), vehicle: saline
[8] = dose: 60.0 mg/kg/injection, schedule: Q01DX005 (ip), vehicle: Klucel (hydroxypropylcellulose) (HPC)
[9] = dose: 120.0 mg/kg/injection, schedule: Q01DX005 (ip), vehicle: Klucel (hydroxypropylcellulose) (HPC)
[10] = dose: 240.0 mg/kg/injection, schedule: Q01DX005 (ip), vehicle: Klucel (hydroxypropylcellulose) (HPC)
[11] = dose: 25.0 mg/kg/injection, schedule: Q01DX009 (ip), vehicle: saline with Tween-80
[12] = dose: 50.0 mg/kg/injection, schedule: Q01DX009 (ip), vehicle: saline with Tween-80
[13] = dose: 50.0 mg/kg/injection, schedule: Q01DX005 (ip), vehicle: saline with Tween-80
[14] = dose: 100.0 mg/kg/injection, schedule: Q01DX005 (ip), vehicle: saline with Tween-80
[15] = dose: 200.0 mg/kg/injection, schedule: Q01DX005 (ip), vehicle: saline with Tween-80
[16] = dose: 25.0 mg/kg/injection, schedule: Q01DX005 (ip), vehicle: saline
[17] = dose: 50.0 mg/kg/injection, schedule: Q01DX005 (ip), vehicle: saline
[18] = dose: 12.5 mg/kg/injection, schedule: Q01DX009 (ip), vehicle: saline
[19] = dose: 25.0 mg/kg/injection, schedule: Q01DX009 (ip), vehicle: saline
[20] = dose: 60.0 mg/kg/injection, schedule: Q01DX005 (ip), vehicle: saline with Tween-80
[21] = dose: 120.0 mg/kg/injection, schedule: Q01DX005 (ip), vehicle: saline with Tween-80
[22] = dose: 100.0 mg/kg/injection, schedule: Q04DX003 (ip), vehicle: saline with Tween-80
[23] = dose: 200.0 mg/kg/injection, schedule: Q04DX003 (ip), vehicle: saline with Tween-80
[24] = dose: 240.0 mg/kg/injection, schedule: Q01DX005 (ip), vehicle: saline with Tween-80
[25] = dose: 100.0 mg/kg/injection, schedule: Q01DX009 (ip), vehicle: saline with Tween-80

Measured: T/C

CC(C)(C)C(=O)CC(=O)C(F)(F)C(F)(F)C(F)(F)F.CC(C)(C)C(=O)CC(=O)C(F)(F)C(F)(F)C(F)(F)F.CC(C)(C)C(=O)CC(=O)C(F)(F)C(F)(F)C(F)(F)F.[Er]
inactive: dose: 100.0 mg/kg/injection, schedule: Q01DX009 (ip), vehicle: Klucel (hydroxypropylcellulose) (HPC) 97 % of control | dose: 200.0 mg/kg/injection, schedule: Q01DX009 (ip), vehicle: Klucel (hydroxypropylcellulose) (HPC) 95 % of control | dose: 400.0 mg/kg/injection, schedule: Q01DX009 (ip), vehicle: Klucel (hydroxypropylcellulose) (HPC) 112 % of control

CC(C)c1ccccc1N1C(=O)CC(Sc2ccccc2N)C1=O (configuration not stated)
inactive: [1] 107 % of control | [2] 102 % of control | [3] 105 % of control and 90 % of control | [4] 90 % of control

Oc1ccc(Cl)cc1C1CCCCC1
inactive: [5] 100 % of control | [6] 100 % of control | [7] 98 % of control

Brc1ccc2c(ccc3nc4nnnn4nc32)c1
inactive: [8] 94 % of control | [9] 90 % of control | [10] 86 % of control

CCN(CCc1ccc(N)cc1)C(Cc1ccccc1)c1cccc(OC)c1 (configuration not stated)
inactive: dose: 12.5 mg/kg/injection, schedule: Q01DX009 (ip), vehicle: saline with Tween-80 95 % of control | [11] 95 % of control | [12] 87 % of control

C[C@]12CCC(=O)N[C@@H]1CC[C@@H]1[C@@H]2CC[C@]2(C)[C@@H](OC(=O)COc3ccc(N(CCCl)CCCl)cc3)CC[C@@H]12
inactive: dose: 2.5 mg/kg/injection, schedule: Q01DX005 (ip), vehicle: saline with Tween-80 116 % of control
active: dose: 10.0 mg/kg/injection, schedule: Q01DX005 (ip), vehicle: saline with Tween-80 155 % of control | dose: 15.0 mg/kg/injection, schedule: Q01DX005 (ip), vehicle: saline with Tween-80 181 % of control | dose: 20.0 mg/kg/injection, schedule: Q01DX005 (ip), vehicle: saline with Tween-80 192 % of control | dose: 30.0 mg/kg/injection, schedule: Q01DX005 (ip), vehicle: saline with Tween-80 220 % of control

CCOC(=O)C(Nc1cc([N+](=O)[O-])ccc1C(=O)N1CCCCC1)(C(=O)OCC)N1CCCCC1
inactive: [8] 96 % of control | [9] 92 % of control | [10] 89 % of control

Nc1cc2cc([N+](=O)[O-])ccc2oc1=O
inactive: dose: 50.0 mg/kg/injection, schedule: Q01DX005 (ip), vehicle: Klucel + Tween-80 96 % of control | dose: 100.0 mg/kg/injection, schedule: Q01DX005 (ip), vehicle: Klucel + Tween-80 90 % of control | dose: 200.0 mg/kg/injection, schedule: Q01DX005 (ip), vehicle: Klucel + Tween-80 87 % of control

C[N+]1=CN(S(=O)(=O)C2C=CC=CC=C2)CC1(C)C
inactive: dose: 100.0 mg/kg/injection, schedule: Q04DX003 (ip), vehicle: saline 100 % of control | dose: 200.0 mg/kg/injection, schedule: Q04DX003 (ip), vehicle: saline 107 % of control | dose: 400.0 mg/kg/injection, schedule: Q04DX003 (ip), vehicle: saline 97 % of control

CSc1nc(N)cc(C(F)(F)F)n1
inactive: [13] 88 % of control | [14] 99 % of control | [15] 97 % of control

CCC(CNc1cc(OC)cc2cccnc12)NC1CCCCC1 (configuration not stated)
inactive: dose: 12.5 mg/kg/injection, schedule: Q01DX005 (ip), vehicle: saline 102 % of control | [16] 99 % of control | [17] 100 % of control and 102 % of control

COC1C=CC23c4cc5c(cc4C(O)OC2CN(C)C3C1)OCO5 (configuration not stated)
inactive: [18] 106 % of control | [19] 107 % of control | [5] 115 % of control | [6] 94 % of control

CCOC(=O)/C(C#N)=C/Nc1ccc(Cl)nc1Cl
inactive: [20] 89 % of control | [21] 86 % of control

CCC1CN2CCC3(C(=O)Nc4ccccc43)C2CC1/C(=C/OC)C(=O)OC (configuration not stated)
inactive: dose: 6.25 mg/kg/injection, schedule: Q01DX009 (ip), vehicle: saline 102 % of control | [18] 100 % of control | [19] 102 % of control | [12] 100 % of control | [5] 103 % of control

c1ccc2c3c([nH]c2c1)C1CC2CCCCC2CN1CC3 (configuration not stated)
inactive: [20] 94 % of control | [21] 111 % of control

CCOP(=O)(Nc1cc(C)ccc1C)OCC
inactive: [5] 100 % of control | dose: 100.0 mg/kg/injection, schedule: Q01DX001 (ip), vehicle: saline with Tween-80 105 % of control | [6] 104 % of control | dose: 200.0 mg/kg/injection, schedule: Q01DX001 (ip), vehicle: saline with Tween-80 112 % of control | [7] 106 % of control | dose: 400.0 mg/kg/injection, schedule: Q01DX001 (ip), vehicle: saline with Tween-80 109 % of control

CC[C@@H]1CN2CCc3c([nH]c4ccccc34)[C@@H]2C[C@@H]1/C(=C\OC)C(=O)OC
inactive: [16] 100 % of control and 96 % of control | [17] 98 % of control and 107 % of control and 108 % of control | dose: 100.0 mg/kg/injection, schedule: Q01DX005 (ip), vehicle: saline 109 % of control (2×) and 123 % of control

Nc1ncnc(N)c1N=O
inactive: dose: 50.0 mg/kg/injection, schedule: Q04DX003 (ip), vehicle: saline with Tween-80 100 % of control | [22] 104 % of control | [23] 100 % of control

Cc1ccc2nc(CC(=O)c3ccc4ccccc4c3)c(=O)[nH]c2c1
inactive: [20] 99 % of control | [21] 92 % of control | [24] 94 % of control

Cc1ccccc1CN1CC2=C(CCN(Cc3ccccc3)C2=O)N2CCN=C12
inactive: [13] 96 % of control | [14] 96 % of control | [15] 100 % of control

CCCCC/C=N/N(C)C=O
inactive: dose: 100.0 mg/kg/injection, schedule: Q04DX002 (ip), vehicle: saline 103 % of control | dose: 200.0 mg/kg/injection, schedule: Q04DX002 (ip), vehicle: saline 103 % of control | dose: 400.0 mg/kg/injection, schedule: Q04DX002 (ip), vehicle: saline 100 % of control

CC1=C(N2CCOCC2)C(N2CCOCC2)=C(C)C(=O)C1=O
inactive: [1] 108 % of control | [2] 101 % of control | [3] 108 % of control | dose: 100.0 mg/kg/injection, schedule: Q01DX005 (ip), vehicle: Klucel (hydroxypropylcellulose) (HPC) 97 % of control | [4] 96 % of control

C#CCOc1ccc(C(F)(F)F)cc1
inactive: [11] 105 % of control | [12] 118 % of control | [25] 119 % of control

CC(=O)OCNCOC(C)=O
inactive: [6] 106 % of control | [7] 108 % of control | dose: 400.0 mg/kg/injection, schedule: Q01DX009 (ip), vehicle: saline 106 % of control

CC1=NN(C(=O)c2ccncc2)C(=O)C1N=Nc1ccc(C)c([N+](=O)[O-])c1 (configuration not stated)
inactive: [12] 107 % of control | [25] 101 % of control | dose: 200.0 mg/kg/injection, schedule: Q01DX009 (ip), vehicle: saline with Tween-80 97 % of control

O=c1[nH]c(=S)cnn1C1OC(CO)C(O)C1O (configuration not stated)
inactive: [5] 106 % of control | [6] 94 % of control | [7] 101 % of control

COC(=O)CCC(=O)CN1C(=O)c2ccccc2C1=O
inactive: [20] 106 % of control | [21] 111 % of control | [24] 111 % of control

CC(C)C(=O)OCC(C)(C)C(OC(=O)COc1ccc(Cl)cc1Cl)C(C)C (configuration not stated)
inactive: [13] 101 % of control | [14] 106 % of control | [15] 97 % of control

Cc1ccc(N2C(=O)CSC2=S)cc1Cl
inactive: [5] 103 % of control | [6] 94 % of control | [7] 100 % of control

CC(C)(N)CNc1ccccc1
inactive: [19] 111 % of control | [5] 117 % of control | [6] 120 % of control

COc1ccc2nc(NC(=O)Nc3c(Cl)cccc3Cl)sc2c1
inactive: [20] 95 % of control | [21] 101 % of control | [24] 88 % of control

COc1cc(C(c2cc3c(cc2O)OCO3)N2CCOCC2)ccc1O (configuration not stated)
inactive: [20] 116 % of control | [21] 106 % of control

COc1ccc(-c2cnc(C(N)=O)c(=O)[nH]2)cc1
inactive: [22] 104 % of control | [23] 95 % of control | dose: 400.0 mg/kg/injection, schedule: Q04DX003 (ip), vehicle: saline with Tween-80 100 % of control

— PubChem BioAssay AID330 (DTP/NCI, 2004)
